molecular target: T1, human LPA1 (Homo sapiens, UniProt Q92633); assay: LPA1 functional antagonist assay (LPA-induced calcium flux in CHO cells overexpressing human LPA1); assay type: cell-based; details: inhibition of calcium flux induced by 10 nM LPA, CHO cells overexpressing human LPA1; read-out: hLPA1 IC50
T1 construct: expressed in transfected cells; host or cells: Chinese hamster ovary (CHO) cells
Procedure: The effectiveness of compounds of the present invention as LPA1 inhibitors can be determined in an LPA1 functional antagonist assay as follows:
Chinese hamster ovary cells overexpressing human LPA1 were plated overnight (15,000 cells/well) in poly-D-lysine coated 384-well microplates (Greiner bio-one, Cat #781946) in DMEM/F12 medium (Gibco, Cat #11039). Following overnight culture, cells were loaded with calcium indicator dye (AAT Bioquest Inc, Cat #34601) for 30 minutes at 37° C. The cells were then equilibrated to room temperature for 30 minutes before the assay. Test compounds solubilized in DMSO were transferred to 384 well non-binding surface plates (Corning, Cat #3575) using the Labcyte Echo acoustic dispense and diluted with assay buffer [IX HBSS with calcium/magnesium (Gibco Cat #14025-092), 20 mM HEPES (Gibco Cat #15630-080) and 0.1% fatty acid free BSA (Sigma Cat #A9205)] to a final concentration of 0.5% DMSO. Diluted compounds were added to the cells by FDSS6000 (Hamamatsu) at final concentrations ranging from 0.08 nM to 5 μM. and were then incubated for 20 min at room temperature at which time LPA (Avanti Polar Lipids Cat #857130C) was added at final concentrations of 10 nM to stimulate the cells. The compound IC50 value was defined as the concentration of test compound which inhibited 50% of the calcium flux induced by LPA alone. IC50 values were determined by fitting data to a 4-parameter logistic equation (GraphPad Prism, San Diego Calif.).

T1 sequence (Q92633 whole entry): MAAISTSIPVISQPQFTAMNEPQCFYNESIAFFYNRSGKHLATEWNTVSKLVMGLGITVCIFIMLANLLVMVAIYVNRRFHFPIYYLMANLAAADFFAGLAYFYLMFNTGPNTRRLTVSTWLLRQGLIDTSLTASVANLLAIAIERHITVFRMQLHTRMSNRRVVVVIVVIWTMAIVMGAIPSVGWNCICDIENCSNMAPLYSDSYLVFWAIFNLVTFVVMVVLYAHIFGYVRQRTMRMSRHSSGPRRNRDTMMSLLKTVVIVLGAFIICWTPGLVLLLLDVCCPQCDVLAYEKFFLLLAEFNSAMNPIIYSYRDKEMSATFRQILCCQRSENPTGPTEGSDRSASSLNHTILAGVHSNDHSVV

**Q.** With `CCC(OC)c1nc(NCc2c(-c3ccc(O[C@H]4CCC[C@H](C(=O)O)C4)c(C)n3)nnn2C)no1` (mixture of isomers) [Example 217, (1S,3S)-3-((6-(5-(((5-(1-methoxy-propyl)-1,2,4-oxadiazol-3-yl)amino)methyl)-1-methyl-1H-1,2,3-triazol-4-yl)-2-methylpyridin-3-yl)oxy) cyclo-hexane-1-carboxylic acid] as the compound, how does the IC50 read?
**A.** 0.084 µM

**Q.** For `CCCOC(C)c1nc(NCc2c(-c3ccc(O[C@H]4CCC[C@H](C(=O)O)C4)c(C)n3)nnn2C)no1` (mixture of isomers) [Example 218, (1S,3S)-3-((2-methyl-6-(1-methyl-5-(((5-(1-propoxyethyl)-1,2,4-oxadiazol-3-yl)amino)methyl)-1H-1,2,3-triazol-4-yl)pyridin-3-yl)oxy)cyclohexane-1-carboxylic acid], which IC50 is on record?
**A.** 0.035 µM

**Q.** Which IC50 does the source give for `Cc1nc(-c2nnn(C)c2CNc2noc(C3CCCO3)n2)ccc1O[C@H]1CCC[C@H](C(=O)O)C1` (mixture of isomers) [Example 221, (1S,3S)-3-((2-methyl-6-(1-methyl-5-(((5-(tetrahydrofuran-2-yl)-1,2,4-oxadiazol-3-yl)amino)methyl)-1H-1,2,3-triazol-4-yl)pyridin-3-yl)oxy) cyclohexane-1-carboxylic acid] here?
**A.** 0.221 µM

**Q.** With `CCOC(C)c1nc(NCc2c(-c3ccc(O[C@H]4CCC[C@H](C(=O)O)C4)c(C)n3)nnn2C)no1` (mixture of isomers) [Example 222, (1S,3S)-3-((6-(5-(((5-(1-ethoxyethyl)-1,2,4-oxadiazol-3-yl)amino)methyl)-1-methyl-1H-1,2,3-triazol-4-yl)-2-methylpyridin-3-yl)oxy)cyclohexane-1-carboxylic acid] as the compound, how does the IC50 read?
**A.** 0.092 µM

**Q.** `COC(C)c1nc(NCc2c(-c3ccc(O[C@H]4CCC[C@H](C(=O)O)C4)c(C)n3)nnn2C)no1` (mixture of isomers) [Example 223, (1S,3S)-3-((6-(5-(((5-(1-methoxy-ethyl)-1,2,4-oxadiazol-3-yl)amino)methyl)-1-methyl-1H-1,2,3-triazol-4-yl)-2-methylpyridin-3-yl)oxy)cyclo-hexane-1-carboxylic acid] was tested. Which IC50 did it give?
**A.** 0.466 µM

**Q.** Which IC50 does the source give for `Cc1nc(-c2nnn(C)c2CNc2noc(C(C)OC3CC3)n2)ccc1O[C@H]1CCC[C@H](C(=O)O)C1` (mixture of isomers) [Example 226, (1S,3S)-3-((6-(5-(((5-(1-cyclopro-poxyethyl)-1,2,4-oxadiazol-3-yl)amino)methyl)-1-methyl-1H-1,2,3-triazol-4-yl)-2-methylpyridin-3-yl)oxy)cyclohexane-1-carboxylic acid] here?
**A.** 0.123 µM

**Q.** For `Cc1nc(-c2nnn(C)c2Cc2noc(C(C)C3CC3)n2)ccc1O[C@H]1CCC[C@H](C(=O)O)C1` (mixture of isomers) [Example 239, (1S,3S)-3-((6-(5-((5-(1-cyclopropyl-ethyl)-1,2,4-oxadiazol-3-yl)methyl)-1-methyl-1H-1,2,3-triazol-4-yl)-2-methylpyridin-3-yl)oxy)cyclohexane-1-carboxylic acid], which IC50 is on record?
**A.** 0.028 µM

**Q.** Which IC50 does the source give for `CCC(C)Cc1nc(NCc2c(-c3ccc(O[C@H]4CCC[C@H](C(=O)O)C4)cn3)nnn2C)no1` (mixture of isomers) [Example 290, (1S,3S)-3-((6-(1-methyl-5-(((5-(2-methylbutyl)-1,2,4-oxadiazol-3-yl)amino)methyl)-1H-1,2,3-triazol-4-yl)pyridin-3-yl)oxy)cyclohexane-1-carboxylic acid, racemate] here?
**A.** 0.0373 µM

**Q.** How did the IC50 turn out when `CCCC(C)c1nc(NCc2c(-c3ccc(O[C@H]4CCC[C@H](C(=O)O)C4)cn3)nnn2C)no1` (mixture of isomers) [Example 291, (1S,3S)-3-((6-(1-methyl-5-(((5-(pentan-2-yl)-1,2,4-oxadiazol-3-yl)amino)methyl)-1H-1,2,3-triazol-4-yl)pyridin-3-yl)oxy)cyclohexane-1-carboxylic acid, racemate] was run?
**A.** 0.0594 µM

**Q.** How did the IC50 turn out when `CC[C@@H](OC)c1nc(NCc2c(-c3ccc(O[C@H]4CCC[C@H](C(=O)O)C4)c(C)n3)nnn2C)no1` (single isomer, unassigned) [Example 215] was run?
**A.** 0.154 µM

**Q.** For `CC[C@@H](OC)c1nc(NCc2c(-c3ccc(O[C@H]4CCC[C@H](C(=O)O)C4)c(C)n3)nnn2C)no1` (single isomer, unassigned) [Example 216], which IC50 is on record?
**A.** 0.121 µM

**Q.** With `Cc1nc(-c2nnn(C)c2CNc2nsc(C3CC3)n2)ccc1O[C@H]1CCC[C@H](C(=O)O)C1` [Example 1, (1 S,3 S)-3-((6-(5-(((5-Cyclopropyl-1,2,4-thiadiazol-3-yl)amino)methyl)-1-methyl-1H-1,2,3-triazol-4-yl)-2-methylpyridin-3-yl)oxy)cyclohexane-1-carboxylic acid] as the compound, how does the IC50 read?
**A.** 1.18 µM

**Q.** Which IC50 does the source give for `CCCc1nnc(NCc2c(-c3ccc(O[C@H]4CCC[C@H](C(=O)O)C4)c(C)n3)nnn2C)s1` [Example 2, (1 S,3S)-3-((2-Methyl-6-(1-methyl-5-(((5-propyl-1,3,4-thiadiazol-2-yl)amino)methyl)-1H-1,2,3-triazol-4-yl)pyridin-3-yl)oxy)cyclohexanecarboxylic acid] here?
**A.** 0.185 µM

**Q.** Which IC50 does the source give for `Cc1nc(-c2nnn(C)c2CNc2nc(C(C)(C)C)ns2)ccc1O[C@H]1CCC[C@H](C(=O)O)C1` [Example 3, (1 S,3 S)-3-((6-(5-(((3-(tert-Butyl)-1,2,4-thiadiazol-5-yl)amino)methyl)-1-methyl-1H-1,2,3-triazol-4-yl)-2-methylpyridin-3-yl)oxy)cyclohexanecarboxylic acid] here?
**A.** 0.236 µM

**Q.** For `COc1nc(NCc2c(-c3ccc(O[C@H]4CCC[C@H](C(=O)O)C4)c(C)n3)nnn2C)ns1` [Example 4], which IC50 is on record?
**A.** 1.12 µM

**Q.** `CCOc1nc(NCc2c(-c3ccc(O[C@H]4CCC[C@H](C(=O)O)C4)c(C)n3)nnn2C)ns1` [Example 5] was tested. Which IC50 did it give?
**A.** 0.028 µM

**Q.** `Cc1nc(-c2nnn(C)c2CNc2nsc(-c3ccccc3)n2)ccc1O[C@H]1CCC[C@H](C(=O)O)C1` [Example 6] was tested. Which IC50 did it give?
**A.** 0.018 µM

**Q.** How did the IC50 turn out when `Cc1nc(-c2nnn(C)c2CNc2nnc(C3CC3)s2)ccc1O[C@H]1CCC[C@H](C(=O)O)C1` [Example 7] was run?
**A.** 2.24 µM

**Q.** `Cc1nc(-c2nnn(C)c2CNc2nnc(CC(C)C)s2)ccc1O[C@H]1CCC[C@H](C(=O)O)C1` [Example 8] was tested. Which IC50 did it give?
**A.** 0.455 µM

**Q.** `Cc1nc(-c2nnn(C)c2CNc2nc(-c3ccccc3)ns2)ccc1O[C@H]1CCC[C@H](C(=O)O)C1` [Example 9] was tested. Which IC50 did it give?
**A.** 0.038 µM

**Q.** `Cc1nc(-c2nnn(C)c2CNc2nc(C(C)C)ns2)ccc1O[C@H]1CCC[C@H](C(=O)O)C1` [Example 10] was tested. Which IC50 did it give?
**A.** 0.071 µM

**Q.** With `CCCn1cc(NCc2c(-c3ccc(O[C@H]4CCC[C@H](C(=O)O)C4)c(C)n3)nnn2C)nn1` [Example 11] as the compound, how does the IC50 read?
**A.** 0.705 µM

**Q.** With `Cc1nc(-c2nnn(C)c2CNc2nc(C(C)C)cs2)ccc1O[C@H]1CCC[C@H](C(=O)O)C1` [Example 12] as the compound, how does the IC50 read?
**A.** 0.745 µM

**Q.** Which IC50 does the source give for `Cc1nc(-c2nnn(C)c2CNc2nc(C3CCC3)cs2)ccc1O[C@H]1CCC[C@H](C(=O)O)C1` [Example 13] here?
**A.** 0.013 µM

**Q.** Which IC50 does the source give for `Cc1nc(-c2nnn(C)c2CNc2nc(-c3ccccc3)cs2)ccc1O[C@H]1CCC[C@H](C(=O)O)C1` [Example 14] here?
**A.** 0.13 µM

**Q.** Which IC50 does the source give for `Cc1nc(-c2nnn(C)c2CNc2ncc(C(C)C)s2)ccc1O[C@H]1CCC[C@H](C(=O)O)C1` [Example 15] here?
**A.** 0.055 µM

**Q.** With `Cc1nc(-c2nnn(C)c2CNc2ncc(-c3ccccc3)s2)ccc1O[C@H]1CCC[C@H](C(=O)O)C1` [Example 16] as the compound, how does the IC50 read?
**A.** 0.067 µM

**Q.** For `Cc1nc(-c2nnn(C)c2CNc2nc3c(s2)CCCC3)ccc1O[C@H]1CCC[C@H](C(=O)O)C1` [Example 17], which IC50 is on record?
**A.** 1.2 µM

**Q.** How did the IC50 turn out when `Cc1nc(-c2nnn(C)c2CNc2nc(-c3ccccc3)c(C)s2)ccc1O[C@H]1CCC[C@H](C(=O)O)C1` [Example 18] was run?
**A.** 0.015 µM
